Test results: patent publication US5110976A, “Insecticidal composition comprising more than one active ingredient” (priority 1985, dated 1992)
In brackets after ≈: the same amount, converted by molar mass. Entries after “also recorded” stand apart in the source; their conditions may differ.

How the values were obtained:
tribolium confusum [1] = test: Comparative contact test (Table 15); format: in vivo, flour-beetle (Tribolium confusum), imago; conditions: 24 h
Description: (§1) The active ingredient is dissolved in a 1:2 mixture of oil and acetone; filter paper discs (Whatman No. 1, diameter 9 cm) are impregnated with the solutions of the corresponding stereoisomers and enantiomer-pairs, respectively. The acetone is allowed to evaporate, whereupon the insects are exposed to filter papers discs placed in Petri-dishes. Three parallels are used on each dose and 15 insects are placed into each Petri-dish. The percental mortality is determined after 24 hours. The corrected percent mortality is calculated by means of the Abbot Formula.
(§2) The comparative test of Ia, Ib and a 40:60 mixture of Ia:Ib is carried out on bean weevil (Acanthoscelides obtectus), flour-beetle, (Tribolium confusum), house fly (Musca domestica) and sheep maggot fly (Lucillia sericata). The test method described is Example 41.

Musca domestica [2] = test: Filter paper disc contact test (Table 11); format: in vivo, house fly (Musca domestica); conditions: Musca domestica, 24 h
Description: In Table 1 the activity of various stereoisomers of cypermethrin on the house fly (Musca domestica) is shown.
as §1

Acanthoscelides obtectus = test: Comparative contact test (Table 15); format: in vivo, bean weevil (Acanthoscelides obtectus), imago; conditions: Acanthoscelides obtectus, 24 h
Description: as §1, §2

Tribolium confusum [3] = test: Contact test, mixtures of Ia and Ib of various ratio (Table 13); format: in vivo, flour beetle (Tribolium confusum); conditions: Tribolium confusum, 24 h
Description: as §1
In Table 13 the insecticidal effect of mixtures of enantiomer-pairs Ia and Ib of various ratio is shown on flour beetle (Tribolium confusum). The test method is that disclosed in Example 43.

Tetranychus urticae = test: Potter Tower spray on mite-infested leaves (Table 19); format: in vivo, mites (Tetranychus urticae); conditions: Tetranychus urticae, 24 h, mortality after 24 hours; read-out: approx. LD50
Description: Leaves already infested with mites (Tetranychus urticae) were sprayed under Potter Tower. Mortality after 24 hours on the treated leaves was compared with the control.

Tribolium confusum [4] = test: Contact test on Tribolium confusum (Table 12); format: in vivo
Description: as §1
It appears from Table 12 that the increased activity shown in Example 41 is due to the synergistic effect of the trans-isomers to Tribolium confusum.

Lucillia sericata = test: Comparative contact test (Table 15); format: in vivo, sheep maggot fly (Lucillia sericata), imago; parameters: key: % mortality after 24 h, Abbott-corrected; conditions: 1440 min
Description: as §1, §2

T. confusum = test: Activity as function of time, toxic symptoms (Table 16); format: in vivo, flour beetle (T. confusum), imagos
Description: as §1
Activity of cypermethrin stereoisomer-pairs as function of time on flour beetle (T. Confusum).
Flour beetle (T. confusum) imagos are exposed in Petri-dishes according to the method described in Example 43. For each dose 3 parallels are used and 15 animals are applied for each parallel test. In each point of time the insects lying on their backs are counted and the percental results are expressed in Table 16.

Musca domestica [5] = test: Comparative contact test (Table 15); format: in vivo, house fly (Musca domestica), imago; conditions: 24 h
Description: as §1, §2

Hyphantria cunea = test: Topical test on fall webworm (Table 18); format: in vivo, fall wetworm (Hyphantria cunea), L7-L8 larvae; conditions: Hyphantria cunea, topical, 24 h
Description: The active ingredients are dissolved in 2-ethoxy-ethanol and the solutions are applied in the form of 0.2 μl droplets onto the back of fall wetworm (Hyphantria cunea) of L7 -L8 larvae stage. The treated worms are placed on strawberry leaves in Petri-dishes. The test is carried out by using […], 2 parallels and 10 insects for each dose. The killed worms are counted after 24 hours and the percental mortality rate is calculated.

Aphidinus matricariae = test: Residual contact test on adults (Table 25); format: in vivo, adult females
Description: Residual contact test on adults of Aphidinus matricariae. Adults of A. matricariae are exposed to residues of the active ingredients freshly applied on glass plates forming cages, then the survivors are counted.
Treatment: test product and control treated with water.
Replicates: at least 3. Plot size (net): 1 cage.
Parasites of known age (24 hours) are used. […]
10 females of A. matricariae are introduced into each cage and supplied with honey as food. The number of females surviving exposure is determined after 1, 5 and 24 hours, in independent runs. Total number of survivors is calculate for each cage.

Colorado potato beetle = test: Topical test on Colorado potato beetle (Table 14); format: in vivo, Colorado potato beetle (Leptinotersa decemlineata), imago
Description: In Table 14 the activity on Colorado potato beetle is shown.
The test materials are dissolved in 2-ethoxyethanol (Cellosolve). One 0.3 μl drop of the solution is applied to the abdominal sterna of the imago. The treatment is carried out by using 2 parallels and 10 insects for each dose. […]

CC1(C)[C@H](C(=O)O[C@H](C#N)c2cccc(Oc3ccccc3)c2)[C@@H]1C=C(Cl)Cl (relative stereo) [Ia]
mortality at 20 µg/disc (tribolium confusum [1]; 0.02 mg/disc): 0%
mortality at 70 µg/disc (tribolium confusum [1]; 0.07 mg/disc): 18%
mortality at 220 µg/disc (tribolium confusum [1]; 0.22 mg/disc): 51%
mortality at 670 µg/disc (tribolium confusum [1]; 0.67 mg/disc): 100%
mortality at 2000 µg/disc (tribolium confusum [1]; 2.0 mg/disc): 100%
mortality at 6000 µg/disc (tribolium confusum [1]; 6.0 mg/disc): 100%
mortality at 40 µg/disc (Musca domestica [2]; 0.04 mg/disc): 44%
mortality at 110 µg/disc (Musca domestica [2]; 0.11 mg/disc): 84%
mortality at 330 µg/disc (Musca domestica [2]; 0.33 mg/disc): 100%
mortality at 1000 µg/disc (Musca domestica [2]; 1.00 mg/disc): 100%
mortality at 3000 µg/disc (Musca domestica [2]; 3.00 mg/disc): 100%
mortality at 20 µg/disc (Acanthoscelides obtectus; 0.02 mg/disc): 10%
mortality at 70 µg/disc (Acanthoscelides obtectus; 0.07 mg/disc): 37%
mortality at 220 µg/disc (Acanthoscelides obtectus; 0.22 mg/disc): 63%
mortality at 670 µg/disc (Acanthoscelides obtectus; 0.67 mg/disc): 95%
mortality at 2000 µg/disc (Acanthoscelides obtectus; 2.0 mg/disc): 100%
mortality at 6000 µg/disc (Acanthoscelides obtectus; 6.0 mg/disc): 100%
mortality at 60 µg/disc (Tribolium confusum [3]; 0.06 mg/disc): 14%
mortality at 250 µg/disc (Tribolium confusum [3]; 0.25 mg/disc): 54%
mortality at 20 µg/disc (Tribolium confusum [3]; 0.02 mg/disc): 0%
mortality at 1000 µg/disc (Tribolium confusum [3]; 1.00 mg/disc): 100%
LC50 (Tetranychus urticae): ~0.056 µg/mL (≈ 0.135 µM)
mortality at 330 µg/disc (Tribolium confusum [4]; Tribolium confusum, 24 h, 0.33 mg/disc): 65%
mortality at 1000 µg/disc (Tribolium confusum [4]; Tribolium confusum, 24 h, 1.00 mg/disc): 94%
mortality at 3000 µg/disc (Tribolium confusum [4]; Tribolium confusum, 24 h, 3.00 mg/disc): 100%
synergism between the members of the enantiomer-pair (Tribolium confusum [4]; in vivo): does not take place; also recorded: no similar synergism takes place
mortality (Lucillia sericata; 0.02 mg/disc): 0
mortality (Lucillia sericata; 0.07 mg/disc): 30
mortality (Lucillia sericata; 0.22 mg/disc): 29
mortality (Lucillia sericata; 0.67 mg/disc): 57
mortality (Lucillia sericata; 2.0 mg/disc): 60
mortality (Lucillia sericata; 6.0 mg/disc): 65
% of insects showing toxic symptoms (T. confusum; 30 minutes): 0%
% of insects showing toxic symptoms (T. confusum; 30 minutes, 0.33 mg/disc): 0%
% of insects showing toxic symptoms (T. confusum; 30 minutes, 1.00 mg/disc): 0%
% of insects showing toxic symptoms (T. confusum; 30 minutes, 3.00 mg/disc): 33%
% of insects showing toxic symptoms (T. confusum; 60 minutes): 0%
% of insects showing toxic symptoms (T. confusum; 60 minutes, 0.33 mg/disc): 0%
% of insects showing toxic symptoms (T. confusum; 60 minutes, 1.00 mg/disc): 16%
% of insects showing toxic symptoms (T. confusum; 60 minutes, 3.00 mg/disc): 88%
% of insects showing toxic symptoms (T. confusum; 120 minutes): 0%
% of insects showing toxic symptoms (T. confusum; 120 minutes, 0.33 mg/disc): 14%
% of insects showing toxic symptoms (T. confusum; 120 minutes, 1.00 mg/disc): 66%
% of insects showing toxic symptoms (T. confusum; 120 minutes, 3.00 mg/disc): 100%
% of insects showing toxic symptoms (T. confusum; 180 minutes): 10%
% of insects showing toxic symptoms (T. confusum; 180 minutes, 0.33 mg/disc): 49%
% of insects showing toxic symptoms (T. confusum; 180 minutes, 1.00 mg/disc): 100%
% of insects showing toxic symptoms (T. confusum; 180 minutes, 3.00 mg/disc): 100%
mortality at 20 µg/disc (Musca domestica [5]; 0.02 mg/disc): 36%
mortality at 70 µg/disc (Musca domestica [5]; 0.07 mg/disc): 63%
mortality at 220 µg/disc (Musca domestica [5]; 0.22 mg/disc): 88%
mortality at 670 µg/disc (Musca domestica [5]; 0.67 mg/disc): 100%
mortality at 2000 µg/disc (Musca domestica [5]; 2.0 mg/disc): 100%
mortality at 6000 µg/disc (Musca domestica [5]; 6.0 mg/disc): 100%
mortality at 0.023 µg/disc (Hyphantria cunea; 0.023 (μg/disc)): 40%
mortality at 0.047 µg/disc (Hyphantria cunea; 0.047 (μg/disc)): 60%
mortality at 0.094 µg/disc (Hyphantria cunea; 0.094 (μg/disc)): 65%
mortality at 0.188 µg/disc (Hyphantria cunea; 0.188 (μg/disc)): 80%
mortality at 0.375 µg/disc (Hyphantria cunea; 0.375 (μg/disc)): 90%
Mortality % (Aphidinus matricariae; 1 ppm, 1h): 100%
Mortality % (Aphidinus matricariae; 1 ppm, 5h): 100%
Mortality % (Aphidinus matricariae; 1 ppm, 24h): 96%
Mortality % (Aphidinus matricariae; 5 ppm, 1h): 100%
mortality at 0.05 µg/beetle (Colorado potato beetle; Leptinotarsa decemlineata, topical, read-out: 24 hours' mortality %, 0.05 μg/beetle): 50%
mortality at 0.1 µg/beetle (Colorado potato beetle; Leptinotarsa decemlineata, topical, read-out: 24 hours' mortality %, 0.10 μg/beetle): 55%
mortality at 0.2 µg/beetle (Colorado potato beetle; Leptinotarsa decemlineata, topical, read-out: 24 hours' mortality %, 0.20 μg/beetle): 75%
mortality at 0.4 µg/beetle (Colorado potato beetle; Leptinotarsa decemlineata, topical, read-out: 24 hours' mortality %, 0.40 μg/beetle): 80%
comparative activity (Colorado potato beetle; imago of Colorado potato beetle): more active than Ib
